Common to all, as to experiment: inhibition of tumour cell growth, NCI panel, 48 h
The test system of assay [1] is SK-MEL-2 melanoma.
Assay [2] relates to T-47D breast.
For assay [3], the system named is K-562 leukemia.
Assay [4] deals with NCI-H23 lung.
Assay [5] relates to M14 melanoma.
For assay [6], the system named is KM12 colon.
In assay [7] the test system is MDA-N.
For assay [8], the system named is NCI-H522 lung.
In assay [9] the test system is MOLT-4 leukemia.
In assay [10] the test system is CAKI-1 renal.
In assay [11] the test system is UO-31 renal.
For assay [12], the system named is PC-3 prostate.
Assay [13] has as its system LOX IMVI melanoma.
The subject of assay [14] is SK-OV-3 ovarian.
Assay [15] deals with HT29 colon.
Assay [16] has as its system HOP-62 NSCLC.
In assay [17] the test system is A549 NSCLC.
The subject of assay [18] is MALME-3M melanoma.
Assay [19] relates to HOP-92 NSCLC.
Assay [20] deals with EKVX NSCLC.

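A five-concentration, 48-hour dose response in 96-well plates underlies each endpoint, interpolated linearly between surrounding concentrations. TGI denotes the concentration required for complete inhibition of growth.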

For `c1ccc(N2N=C3N(c4ccccc4)C2N3c2ccccc2)cc1`, the TGI in assay [1] was 73 µM; in assay [2], greater than 100 µM; in assay [3], 59.5 µM; in [4], greater than 100 µM; in assay [5] it was 47.6 µM; in assay [6] it was greater than 100 µM. For the same compound, the TGI in assay [7] is 41.8 µM; in assay [8], 56.1 µM; in assay [9] it was 62.5 µM; in assay [10], greater than 100 µM; in assay [11] it was greater than 100 µM; in assay [12] it was greater than 100 µM. Also, the TGI is 62.4 µM in [13]; greater than 100 µM in assay [14]; greater than 100 µM in [15]; greater than 100 µM in assay [16]; greater than 100 µM in assay [17]; 38.2 µM in assay [18]. The TGI in [19] was 60.8 µM; in [20], greater than 100 µM.

With `CCCCn1c(C)c2c(c1C)C(=O)N(CCN1CCN(c3ccccc3Cl)CC1)C2=O`, the TGI in assay [1] was 49 µM; in assay [2] it was 75 µM; in assay [3], 92.1 µM; in assay [4], 85.4 µM; in assay [5] it was 51.5 µM; in [6] it was greater than 100 µM. The TGI in assay [7] is greater than 100 µM; in assay [8], 78.7 µM; in assay [9], 52.2 µM; in assay [10], greater than 100 µM; in assay [11], 43.3 µM; in [12], 79.5 µM. The TGI in assay [13] is 30.1 µM; in assay [14], greater than 100 µM; in [15], 31 µM; in [16], 93.3 µM; in [17], greater than 100 µM; in assay [18], 50.2 µM. For the same compound, the TGI in assay [19] is 68.5 µM; in assay [20] it was greater than 100 µM.

Source of the values: PubChem BioAssay (NCI).
